Reference: patent US11628148B2, “Nail hardening composition and method of use” (WELLA OPERATIONS US, LLC, priority 2017, dated 2023)
One block for each compound: values may come before it.

How the values were obtained:
cow hoof samples = assay: Three-point bend test (flexural strength) of cow hoof samples immersed 24 hours in test solution; details: for FS (flexural strength): 24 h immersion; for % Increase (flexural strength): only samples thinner than 1.8 mm
Protocol: 1. […] Pack samples in vacuum bag. 2. […] 3. […] Pack samples in vacuum bag. 4. Three-Point Bend Test for Untreated and Treated Cow Hoof Samples • Perform using a Texture Analyzer TAXT Plus from Texture Technologies. • Three point bend test is conducted until sample fracture. • Flexural strength is calculated based on force at break for each sample. Results A 3-point bend test set-up was used to measure the break force of treated and untreated cow hoof slices with thickness ranging from 0.88 mm to 2.75 mm. The flexural strength was calculated for each sample, based on sample thickness and width. For each group, the average flexural strength and the standard deviation were calculated. The p-value for the effect significance was calculated for each treated group versus the corresponding baseline value using ANOVA. Outliers were eliminated using the modified Thompson Tau method. Baseline values were determined for groups of untreated samples. Because the hypothesis is that the crosslinker reacts with thiol groups, the effect of dithiothreitol (DTT), a disulfide reducing agent, was tested as well.

[1] = Behaviour of the test solution at the highest concentration prepared; format: physicochemical; details: 3.5% (w/w) BMH in dimethyl sulfoxide

Compound: O[C@H](CS)[C@H](O)CS (racemic) [DTT, dithiothreitol]
- Effect on flexural strength (in words) (cow hoof samples; disulfide reducing agent, results not shown): no significant effect

- Observation on the solution [1]: Gelification
- Observation on the solution ([1]; listed as BMH): gelification
Compound: O=C1C=CC(=O)N1CCCCCCN1C(=O)C=CC1=O [Bismaleimidohexane, bismaleimidohexane]
- % increase (flexural strength vs baseline) (cow hoof samples; 1% BMH in dimethyl sulfoxide): 9.7%
- FS (flexural strength) (cow hoof samples; 1% by weight BMH in dimethyl sulfoxide): 158 N/mm2
- % increase (flexural strength vs baseline) (cow hoof samples; 3% BMH in dimethyl sulfoxide): 8.3%
- FS (flexural strength) (cow hoof samples; 3% by weight BMH in dimethyl sulfoxide): 156 N/mm2
- Effect on flexural strength (in words) (cow hoof samples; BMH at 1% and 3%): non-significant increase

Compound: C=O [Formaldehyde, formaldehyde]
- FS (flexural strength) (cow hoof samples; 1% by weight formaldehyde in ethanol, all samples): 141 N/mm2
- % increase (flexural strength vs baseline) (cow hoof samples; 1% formaldehyde in ethanol, all samples): 20.5%
- % Increase (flexural strength) (cow hoof samples; 1% formaldehyde): 22.2%
- FS (flexural strength) (cow hoof samples; 3% by weight formaldehyde in ethanol, all samples): 132 N/mm2
- % increase (flexural strength vs baseline) (cow hoof samples; 3% formaldehyde in ethanol, all samples): 12.8%
- % Increase (flexural strength) (cow hoof samples; 3% formaldehyde): 15.4%
- FS (flexural strength) (cow hoof samples; 5% by weight formaldehyde in ethanol, all samples): 134 N/mm2
- % increase (flexural strength vs baseline) (cow hoof samples; 5% formaldehyde in ethanol, all samples): 14.5%
- % Increase (flexural strength) (cow hoof samples; 5% formaldehyde): 20.5%

Compound: NCCCCCCN [Hexamethylene diamine, hexamethylene diamine]
- FS (flexural strength) (cow hoof samples; 1% by weight hexamethylene diamine alone in ethanol (equal. to 3% H + M)): 132 N/mm2
- % increase (flexural strength vs baseline) (cow hoof samples; 1% hexamethylene diamine alone in ethanol (equal. to 3% H + M)): 3.9%
- FS (flexural strength) (cow hoof samples; 1.7% by weight hexamethylene diamine alone in ethanol (equal. to 5% H + M)): 149 N/mm2
- % increase (flexural strength vs baseline) (cow hoof samples; 1.7% hexamethylene diamine alone in ethanol (equal. to 5% H + M)): 17.3%
- FS (flexural strength) (cow hoof samples; 2.3% by weight hexamethylene diamine alone in ethanol (equal. to 7% H + M)): 122 N/mm2
- % increase (flexural strength vs baseline) (cow hoof samples; 2.3% hexamethylene diamine alone in ethanol (equal. to 7% H + M)): −3.9%
- Effect on flexural strength (in words) (cow hoof samples; HMD taken separately at 1.7%): borderline significant strengthening effect

Compound: O=C(O)/C=C\C(=O)O [Maleic Acid, maleic acid]
- FS (flexural strength) (cow hoof samples; 3.3% by weight maleic acid alone in ethanol (equ. to 5% H + M)): 131 N/mm2
- % increase (flexural strength vs baseline) (cow hoof samples; 3.3% maleic acid alone in ethanol (equ. to 5% H + M)): 3.1%
- Effect on flexural strength (in words) (cow hoof samples; MA taken separately): does not seem to have any significant effect

Compound: Hexamethylene diamine/Maleic acid [Hexamethylene diamine + Maleic acid]
- % increase (flexural strength vs baseline) (cow hoof samples; 1% HMD + MA in ethanol, all samples): 13.4%
- % Increase (flexural strength) (cow hoof samples; 1% HMD + MA): 20.2%
- FS (flexural strength) (cow hoof samples; 1% by weight HMD + MA (1:2) in ethanol, all samples): 144 N/mm2
- % increase (flexural strength vs baseline) (cow hoof samples; 3% HMD + MA in ethanol, all samples): 17.3%
- % Increase (flexural strength) (cow hoof samples; 3% HMD + MA): 24.2%
- FS (flexural strength) (cow hoof samples; 3% by weight HMD + MA (1:2) in ethanol, all samples): 149 N/mm2
- % increase (flexural strength vs baseline) (cow hoof samples; 5% HMD + MA in ethanol, all samples): 17.3%
- % Increase (flexural strength) (cow hoof samples; 5% HMD + MA): 28.2%
- FS (flexural strength) (cow hoof samples; 5% by weight HMD + MA (1:2) in ethanol, all samples): 149 N/mm2
- % increase (flexural strength vs baseline) (cow hoof samples; 7% HMD + MA in ethanol, all samples): 3.9%
- FS (flexural strength) (cow hoof samples; 7% by weight HMD + MA (1:2) in ethanol, all samples): 132 N/mm2
- Effect on flexural strength (in words) (cow hoof samples; HMD + MA (1:2 ratio) at 3% and 5% (w/w)): significant increase
